How the values were obtained:
[1] = system: Human diffuse large-cell B-cell lymphoma cells OCI-Ly3; assay: Antitumor effect on OCI-Ly3 cell-bearing cancer model; format: in vivo; conditions: average tumor volume increase ratio; 10 mg/kg orally twice daily for 3 weeks; NOG female mice, OCI-Ly3 subcutaneous
Method: Human diffuse large-cell B-cell lymphoma cells OCI-Ly3 (DSMZ, German Collection of Microorganisms and Cell Cultures) were suspended in a Matrigel (BD Biosciences):HBSS (Thermo Fisher Scientific)=1:1 solution, and 1×10^7 cells were transplanted subcutaneously into the abdomen of NOG female mice (CLEA Japan, Inc.). The tumor diameter of the engrafted tumor was measured, and the tumor volume was calculated by the following formula. Tumor volume=major axis×minor axis×minor axis×(½)
Individuals with the engrafted tumor having a tumor volume of about 120 mm^3 were selected, and 6 animals per group were used in the experiment. A suspension of the test compound in 0.5% methylcellulose solution (Fujifilm Wako Pure Chemical Corporation) was orally administered at a dose of 10 mg/kg (10 mL/kg) twice daily for 3 weeks. The tumor volume was measured on the day before the start of administration and every 3 to 4 days over time, and the tumor diameter was finally measured the day after the end of administration for 21 days to calculate the tumor volume. The tumor growth of the test compound-administered group compared with the control-administered group was calculated by the following formula as an average tumor volume increase ratio T/C. T/C=((Tumor volume after the end of administration for the test compound-administered group−Tumor volume of the day before the start of administration for the test compound-administered group)/(Tumor volume after the end of administration for the control-administered group−Tumor volume of the day before the start of administration for the control-administered group))×100

OCI-Ly3 cells = assay: Measurement of growth inhibitory activity using OCI-Ly3 cells; format: cell-based; conditions: Homo sapiens, 144 h, 3 μm compound, 6 days, read-out: Cell growth inhibition rate (%) at 3 μm compound
Method: OCI-Ly3 cells were seeded in a cell culture medium IMDM (Fujifilm Wako Pure Chemical Corporation) containing 20% FCS (fetal calf serum, Thermo Fisher Scientific) and monothioglycerol (Fujifilm Wako Pure Chemical Corporation) so as to be at 1.25×10^3 cells/well on a 96-well plate. Cell Titer-Glo solution (Promega) was added to cells to which the test compound had not been added, followed by stirring at room temperature for 15 minutes. Subsequently, the luminescence value was measured with Envision (PerkinElmer) on the day of seeding. Cells to which the test compound dissolved in dimethyl sulfoxide (Fujifilm Wako Pure Chemical Corporation) had been added were allowed to stand in a CO2 incubator (37° C.) for 6 days. Subsequently, the luminescence value was measured in the same manner. The inhibition rate (%) of the test compound on OCI-Ly3 cell growth was calculated by the following formula. Cell growth inhibition rate (%)=(1−(Luminescent value on day 6 of test compound treatment−Luminescent value before test compound treatment)/(Luminescent value on day 6 without compound addition−Luminescent value before compound treatment))×100

recombinant human MALT1 = target: T1, recombinant human MALT1 (Homo sapiens, UniProt Q9UDY8); assay: Measurement of MALT1 enzyme inhibitory activity; format: biochemical; conditions: read-out: MALT1 enzyme inhibition rate (%) at 3 μM compound
T1 construct: to form a human MALT1 (340-789aa) dimer; His tag (from pET28a, N-terminal) (N); yeast GCN4 leucine zipper (251-281aa), fusion partner for dimerisation (N); translates to GSGSGS), between GCN4 zipper and MALT1 (N); His tag (C-terminal) (C); made in house; host or cells: E. coli BL21 (DE3)
Method: On the human MALT1 gene, PCR was carried out using GC-030-[…] (pENTR221/MALT1, GeneCopoeia) as a template with primers having BamH I restriction enzyme at the N-terminal and Not I restriction enzyme at the C-terminal to form a human MALT1 (340-789aa) dimer. […] Both of the obtained fragments were treated with the restriction enzymes, and inserted between Nde I and Not I of a pET28a (Novagen) vector to yield a recombinant human MALT1 protein expression vector pET28a/His-LZ-hMALT1v1 (340-789)-His. The recombinant human MALT1 protein was prepared by transforming the expression plasmid prepared as above with ECOS Competent E. coli BL21 (DE3) (Nippon Gene Co., Ltd.). Escherichia coli obtained by transformation was inoculated into 300 mL of LB medium (1% tryptone, 0.5% yeast extract, 0.5% sodium chloride, 0.01% ampicillin) and cultured at 30° C. for 16 hours. […] Furthermore, culturing was carried out for 16 hours to induce expression of human MALT1 protein. After completion of the culture, the culture solution was centrifuged at 5,000 rpm for 10 minutes. […] This crushed liquid was centrifuged (15,300×G, 30 min, TOMY MX-301), and the obtained supernatant was passed through and adsorbed to a Ni-NTA Superflow (QIAGEN) column previously equilibrated with 50 mM Tris-HCl pH 8.0, 300 mM NaCl, 5 mM DTT and 10% glycerol, followed by elution in a buffer containing 50 mM Tris-HCl pH 8.0, 300 mM NaCl, 5 mM DTT, 10% glycerol and 250 mM imidazole. […] The prepared protein was stored at -30° C., and the protein concentration was measured with a BCA Protein Assay Kit (PIERCE) using BSA as a standard. […] Subsequently, 2 μL of a purified recombinant human MALT1 enzyme solution was added, followed by incubation for 60 minutes at room temperature. To the mixture were added 2 μL of a substrate solution (75 μM Ac-LRSR-AFC (SM Biochemicals), 20 mM HEPES (Dojin Laboratories), 10 mM KCl (Wako Pure Chemical Industries, Ltd.), 1.5 mM MgCl2 (Sigma-Aldrich), 1 mM EDTA (pH 8.0) (Nippon Gene Co., Ltd.), 0.01% Triton X-100 (Sigma-Aldrich) and 1 mM DTT (Wako Pure Chemical Industries, Ltd.), followed by incubation for 60 minutes at room temperature. The fluorescence values of excitation 400 nm and emission 485 nm immediately after substrate addition and after enzymatic reaction were measured with a plate reader Envision (PerkinElmer), and the fluorescence values increased by enzymatic reaction were used for calculation of the inhibition rate (%).

T1 sequence (Q9UDY8 340-789): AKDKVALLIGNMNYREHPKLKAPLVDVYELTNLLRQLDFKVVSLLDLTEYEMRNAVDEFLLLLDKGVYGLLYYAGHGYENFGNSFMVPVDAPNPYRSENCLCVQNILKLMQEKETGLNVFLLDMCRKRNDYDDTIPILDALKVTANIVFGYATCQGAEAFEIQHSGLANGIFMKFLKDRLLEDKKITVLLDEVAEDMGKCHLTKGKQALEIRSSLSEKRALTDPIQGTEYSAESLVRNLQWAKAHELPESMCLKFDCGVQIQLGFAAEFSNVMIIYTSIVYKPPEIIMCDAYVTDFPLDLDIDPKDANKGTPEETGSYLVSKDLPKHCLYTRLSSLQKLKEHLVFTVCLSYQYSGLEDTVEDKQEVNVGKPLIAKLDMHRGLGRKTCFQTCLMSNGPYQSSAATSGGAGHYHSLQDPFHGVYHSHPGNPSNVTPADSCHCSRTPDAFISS
T1 sequence (P03069 251-281 partner limits assumed): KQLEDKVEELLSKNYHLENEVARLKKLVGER

Row | inhibition at 3 µM (recombinant human MALT1) [%] | SMILES | T/C (%) [1] [%] | inhibition at 3 µM (OCI-Ly3 cells) [%]
1 | 99 | CO[C@@H](C)c1c(NC(=O)Nc2cnc(-n3nccn3)c(C(F)(F)F)c2)cnc2ccc(Cl)nc12 [Example 2, (S)—N-(6-Chloro-4-(1-methoxyethyl)-1,5-naphthyridin-3-yl)-N′-(6-(2H-1,2,3-triazol-2-yl)-5-(trifluoromethyl)pyridin-3-yl)urea] | 2.0 | 97
2 | 101 | CO[C@@H](C)c1c(NC(=O)Nc2cnc(-n3nccn3)c(C(F)(F)F)c2)cnc2ccc(C)nc12 [Example 3, (S)—N-(4-(1-Methoxyethyl)-6-methyl-1,5-naphthyridin-3-yl)-N′-(6-(2H-1,2,3-triazol-2-yl)-5-(trifluoromethyl)pyridin-3-yl)urea] | 38.7 | 99
3 | 104 | CO[C@@H](C)c1c(NC(=O)Nc2cnc(OC(F)F)c(Cl)c2)cnn2cc(C)nc12 [Example 1, (S)—N-(5-Chloro-6-(difluoromethoxy)pyridin-3-yl)-N′-(8-(1-methoxyethyl)-2-methylimidazo[1,2-b]pyridazin-7-yl)urea] | 13.4 | 96
4 | 111 | CO[C@@H](C)c1c(NC(=O)Nc2cnc(-n3nccn3)c(Cl)c2)cnn2cc(C)nc12 [Example 4, (S)—N-(5-Chloro-6-(2H-1,2,3-triazol-2-yl)pyridin-3-yl)-N′-(8-(1-methoxyethyl)-2-methylimidazo[1,2-b]pyridazin-7-yl)urea] | 43.3 | 97

Reference: US11230545B2, “Heterocyclic compound” (Takeda Pharmaceutical Company Limited, priority 2018, dated 2022)
